Laboratory results reported in patent US12338219B2, “Antimalarial agents” (Merck Sharp & Dohme LLC, priority 2019, dated 2025).

Test system: parasites (ring stage parasites, parasite growth)
Test: Parasite LDH growth assay (Parasite Assay), antiparasite potency
Assay type: cell-based
Conditions: 72 hours growth, LDH readout, Table 3
Description: Assessing Antiparasite Potency in a Parasite LDH Growth Assay (Parasite Assay) The parasite stock was maintained at […] in RPMI-Hepes media buffered with sodium bicarbonate and supplemented with […]. […] On the day of assay set up, a blood smear of the parasite culture was Giemsa stained and counted. The parasitemia was adjusted to 0.7% rings and the haematocrit was diluted to 2% in RPMI-Hepes media buffered with sodium bicarbonate and supplemented with 500 heat inactivated human serum and 0.5% albumax. 30 ul of diluted parasites are then added into 10 ul of media+compound in pre-prepared Greiner TC assay plates. Parasite assay plates were placed in gassed humidified boxes in single layer and allowed to incubate at 37° C. for 72 hours. After 72 hours growth, assay plates are sealed with parafilm and frozen flat, in single file at −80° C. overnight. On the following day, assay plates are allowed to thaw at room temperature for 4 hours to which an LDH assay is performed to measure parasite growth.

| Compound | EC50 [nM] | EC50 (72 h) [nM] |
| --- | --- | --- |
| CCC1(C)CC(NC(=O)[C@@H]2C[C@H]2[C@@H](c2cccnc2)N2C(=N)NC(C)(C)CC2=O)c2ccccc2O1 (single isomer, unassigned) [Example 105A] | 0.9 |  |
| CC1(C)CC(=O)N([C@H](c2cccnc2)[C@@H]2C[C@H]2C(=O)NC2CC(C)(C)Oc3ccc(F)cc32)C(=N)N1 (single isomer, unassigned) [Example 98B] | 2.2 |  |
| CC1(C)CC(=O)N(C[C@@H]2C[C@H]2C(=O)N[C@H]2CC3(CCC3)Oc3ccccc32)C(=N)N1 [Example 135] |  | 190 |
| COCC[C@H]([C@@H]1C[C@H]1C(=O)N[C@@H]1CC(C)(C)Oc2cccc(Cl)c21)N1C(=N)NC(C)(C)CC1=O [Example 116B] |  | 18 |
| CC[C@]1(C)CC(=O)N([C@@H](CCOC)[C@@H]2C[C@H]2C(=O)N[C@H]2C[C@H](C(F)(F)F)Oc3ccccc32)C(=N)N1 [Example 62A] |  | 31 |
| CC1(C)CC(=O)N([C@H](c2cccnc2)[C@@H]2C[C@H]2C(=O)NC2CC(C)(C)Oc3c(Cl)cccc32)C(=N)N1 (some centres unmarked) [Example 121B] | 2 |  |
| CC1(C)CC(=O)N([C@H](c2ccc(C#N)cc2)[C@@H]2C[C@H]2C(=O)N[C@H]2CC(C)(C)Oc3ccccc32)C(=N)N1 [Example 45A] |  | 2.8 |
| CCC1(C)CC(NC(=O)[C@@H]2C[C@H]2[C@@H](c2cccnc2)N2C(=N)NC(C)(C)CC2=O)c2ccccc2O1 (single isomer, unassigned) [Example 105C] | 0.8 |  |
| CCC1(CC)CC(=O)N(C[C@@H]2C(C)[C@H]2C(=O)N[C@@H]2c3ccccc3CC2(C)O)C(=N)N1 (single isomer, unassigned) [Example 29A] | 203 |  |
| CC1(C)CC(=O)N([C@@H](c2cccnc2)[C@H]2[C@H](C(=O)N[C@H]3C[C@H](C(F)(F)F)Oc4ccccc43)C2(C)C)C(=N)N1 [Example 43B] |  | 37 |
| CCC1(C)C[C@H](NC(=O)[C@@H]2C[C@H]2CN2C(=N)NC(C)(C)CC2=O)c2ccccc2O1 (some centres unmarked) [Example 78] |  | 300 |
| CC1(C)CC(=O)N(C[C@@H]2C[C@H]2C(=O)N[C@H]2CC(C)(C)Oc3ccc(C(F)(F)F)cc32)C(=N)N1 [Example 100] |  | 170 |
| CC1(C)CC(=O)N(C[C@@H]2C[C@H]2C(=O)N[C@H]2CC(C)(C)Oc3ccc(F)cc32)C(=N)N1 [Example 71] |  | 125 |
| CC1C[C@H](NC(=O)[C@@H]2C[C@H]2CN2C(=N)NC(C)(C)CC2=O)c2cc(F)ccc2O1 (some centres unmarked) [Example 139A] |  | 99 |
| CCC1(C)CC(NC(=O)[C@@H]2C[C@H]2[C@@H](c2cccnc2)N2C(=N)NC(C)(C)CC2=O)c2ccccc2O1 (single isomer, unassigned) [Example 105B] | 1.8 |  |
| CC[C@]1(C)CC(=O)N(C(c2cncc(F)c2)[C@@H]2C[C@H]2C(=O)NC2c3ccccc3OC(C(F)(F)F)C2O)C(=N)N1 (single isomer, unassigned) [Example 104A] | 4 |  |
| CCC1(CC)CC(=O)N(C[C@@H]2[C@@H](C(=O)N[C@@H]3c4ccccc4OC(C)(C)[C@H]3O)C2(F)F)C(=N)N1 [Example 18B] |  | 180 |
| COCC[C@H]([C@@H]1C[C@H]1C(=O)NC1CC(C)(C)Oc2ccccc21)N1C(=N)NC(C)(C)CC1=O (some centres unmarked) [Example 23B] | 15 |  |
| CC1(C)CC(=O)N([C@H](c2cccnc2)[C@@H]2C[C@H]2C(=O)NC2CC(C)(C)Oc3cccc(F)c32)C(=N)N1 (some centres unmarked) [Example 86A] |  | 2.2 |
| CC1(C)CC(=O)N(C(c2cccc(C#N)c2)[C@@H]2C[C@H]2C(=O)NC2CC(C)(C)Oc3ccc(F)cc32)C(=N)N1 (some centres unmarked) [Example 53A] |  | 3.1 |
| CCC1(C)CC(NC(=O)[C@@H]2C[C@H]2[C@@H](CCOC)N2C(=N)NC(C)(C)CC2=O)c2ccccc2O1 (single isomer, unassigned) [Example 75C] | 7 |  |
| COCC[C@H]([C@@H]1C[C@H]1C(=O)NC1CC(C)(C)Oc2ccc(OC(F)(F)F)cc21)N1C(=N)NC(C)(C)CC1=O (some centres unmarked) [Example 126A] |  | 4.7 |
| CCC1(C)CC(NC(=O)[C@@H]2C[C@H]2[C@@H](CCOC)N2C(=N)NC(C)(C)CC2=O)c2ccccc2O1 (some centres unmarked) [Example 75A] |  | 8.2 |
